Experimental data from publication PMC2263054, “Functional evolution of the vitamin D and pregnane X receptors” (BMC Evolutionary Biology, 2007).
Like-named read-outs stand apart in the source and are kept apart here.

How the values were obtained:
[1] = system: glyceraldehyde 3-phosphate dehydrogenase (GAPDH); experiment: zebrafish in vivo liver transcription, semi-quantitative RT-PCR: GAPDH; conditions: 15 mg/kg intraperitoneally, single dose, 48 hr
Method: (§1) Adult zebrafish were purchased from a commercial fish supplier and acclimatized for at least two-weeks in 20 L tanks with flow-through freshwater at 22°C. A single dose of 15 mg/kg of 5α-cyprinol, 5β-cyprinol 27-sulfate, 5α-scymnol or 5β-scymnol-27 sulfate, dissolved in saline, was injected intraperitoneally. A control group was injected with saline. After 48 hr, the animals were decapitated and livers of three fish (n = 5 each group) were removed, pooled and weighed, totalizing 15 fish per group. Fish were not fed throughout the experimental period.
To study the transcription of CYP3C1, ABCB5, PXR, GAPDH and β-actin genes in zebrafish, initial fragments of these genes were identified (Genbank: AW202769, Genbank: BQ284593, Genbank: AAM22215, Genbank: BC083506, Genbank: AF057040, respectively). […] Primer pairs for amplifying CYP3C1 fragment were 5'-[…]-3' (sense) and 5'-[…]-3' (antisense) and for amplifying ABCB5 were 5'-[…]-3' (sense) and 5'-[…]-3' (antisense). The PCR primers for PXR were 5'-[…]-3' (sense) and 5'-[…]-3' (antisense), for amplifying GAPDH were 5'-[…]-3' (sense) and 5' […] 3' (antisense) and for β-actin were 5'-[…]-3' (sense) and 5'-[…]-3' (antisense). RNA was isolated using Trizol (Invitrogen) according to manufacturer's instructions. […] The RNA integrity was checked by non-denaturing gel electrophoresis using 1 μg of total RNA in each sample.
The PXR, CYP3C1, ABCB5 and GAPDH transcript levels were quantified using Gel-Quant™ (Multiplexed Biotechologies) and β-actin was used to normalize the data. The Shapiro-Wilk W test was used to evaluate normality. When data were parametric the analysis was performed using Student t test; otherwise Mann Whitney U test was applied.

CYP3C1 = experiment: zebrafish in vivo liver transcription, semi-quantitative RT-PCR: CYP3C1; conditions: ip, 15 mg/kg, 48 h
Method: as §1, with “period. […].” for “period.”
(§2) To study the transcription of CYP3C1, ABCB5, PXR, GAPDH and β-actin genes in zebrafish, initial fragments of these genes were identified (Genbank: AW202769, Genbank: BQ284593, Genbank: AAM22215, Genbank: BC083506, Genbank: AF057040, respectively). The PCR primers for CYP3C1 were designed using MacVector Software and primers for MDR1 were designed using Primer 3 Software (Whitehead Institute for Biomedical Research; [75]). Primer pairs for amplifying CYP3C1 fragment were 5'-[…]-3' (sense) and 5'-[…]-3' (antisense) and for amplifying ABCB5 were 5'-[…]-3' (sense) and 5'-[…]-3' (antisense). The PCR primers for PXR were 5'-[…]-3' (sense) and 5'-[…]-3' (antisense), for amplifying GAPDH were 5'-[…]-3' (sense) and 5' […] 3' (antisense) and for β-actin were 5'-[…]-3' (sense) and 5'-[…]-3' (antisense). RNA was isolated using Trizol (Invitrogen) according to manufacturer's instructions. Purity and concentration of RNA of each sample were verified at 260 nm. The RNA integrity was checked by non-denaturing gel electrophoresis using 1 μg of total RNA in each sample.
(§3) Two micrograms of total RNA were reversed transcribed using Ominiscript RT Kit (Qiagen, Valencia, CA, USA). cDNA concentration was checked at 260 nm, and the amount adjusted to 1 μg to perform semi-quantitative RT-PCR. The expected size of the PXR, Cyp3C1, abcb5, GAPDH and β-actin fragments were 577, 477, 218, 234 and 550 bp, respectively. Biotools DNA polymerase (Biotools B&M Labs, S.A., Madrid, Spain) kit was used for the PCR reaction using a thermocycler Personal Mastercycler (Eppendörf) with the following PCR program: 5 cycles of 94°C for 5 s, 72°C for 35 s; 5 cycles of 94°C for 5 s, 70°C for 10 s, 72°C for 35 s; and 23, 24, 35, 15 and 24 cycles (PXR, Cyp3C1, abcb5, GAPDH and β-actin, respectively) of 94°C for 5 s, 61, 54, 48, 49 and 61°C for 10 s (PXR, Cyp3C1, abcb5, GAPDH and β-actin, respectively), and 72°C for 35 s. The PXR, CYP3C1, ABCB5 and GAPDH transcript levels were quantified using Gel-Quant™ (Multiplexed Biotechologies) and β-actin was used to normalize the data. The Shapiro-Wilk W test was used to evaluate normality. When data were parametric the analysis was performed using Student t test; otherwise Mann Whitney U test was applied. […]

β-actin = experiment: zebrafish in vivo liver transcription, semi-quantitative RT-PCR: β-actin; conditions: ip, 15 mg/kg, 48 h
Method: as §1, with “period. […].” for “period.”
as §2, §3

Xenopus laevis VDR = target: T1, Xenopus laevis VDR (Xenopus laevis, UniProt O13124); experiment: luciferase reporter transactivation assay in HepG2-NTCP cells, GAL4/xlVDR LBD chimera with tk-UAS-Luc; assay type: cell-based
T1 sequence (O13124 90-422): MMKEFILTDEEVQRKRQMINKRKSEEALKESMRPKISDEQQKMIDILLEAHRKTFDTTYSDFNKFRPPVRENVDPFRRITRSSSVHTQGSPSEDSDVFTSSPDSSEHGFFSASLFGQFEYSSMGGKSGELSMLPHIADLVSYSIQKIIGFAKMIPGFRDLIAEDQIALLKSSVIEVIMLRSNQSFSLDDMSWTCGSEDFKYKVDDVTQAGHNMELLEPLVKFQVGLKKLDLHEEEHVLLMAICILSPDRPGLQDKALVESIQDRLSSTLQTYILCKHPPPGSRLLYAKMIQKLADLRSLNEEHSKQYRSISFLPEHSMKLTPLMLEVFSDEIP

Sea lamprey VDR = target: T2, Sea lamprey VDR (Petromyzon marinus, UniProt Q7ZZY9); assay type: cell-based
T2 sequence (Q7ZZY9 92-406): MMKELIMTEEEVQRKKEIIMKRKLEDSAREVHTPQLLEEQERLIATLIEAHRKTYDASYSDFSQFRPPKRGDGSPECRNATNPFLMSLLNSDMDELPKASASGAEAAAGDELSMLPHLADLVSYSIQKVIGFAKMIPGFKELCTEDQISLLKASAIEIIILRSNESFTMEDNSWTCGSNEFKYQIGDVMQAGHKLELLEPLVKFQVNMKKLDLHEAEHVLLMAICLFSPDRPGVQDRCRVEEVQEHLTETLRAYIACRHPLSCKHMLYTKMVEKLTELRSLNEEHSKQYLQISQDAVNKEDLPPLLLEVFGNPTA

PXR = experiment: zebrafish in vivo liver transcription, semi-quantitative RT-PCR: PXR; conditions: ip, 15 mg/kg, 48 h
Method: as §1, with “period. […].” for “period.”
as §2, §3

[2] = system: MDR1 (tentatively classified as ABCB5 in zebrafish); experiment: zebrafish in vivo liver transcription, semi-quantitative RT-PCR: MDR1; conditions: ip, 15 mg/kg, 48 h
Method: as §1, with “period. […].” for “period.”
as §2, §3

Zebrafish VDR = target: T3, Zebrafish VDR (Danio rerio, UniProt Q9PTN2); experiment: luciferase reporter transactivation assay in HepG2-NTCP cells, GAL4/zfVDR LBD chimera with tk-UAS-Luc; assay type: cell-based
T3 sequence (Q9PTN2 121-453): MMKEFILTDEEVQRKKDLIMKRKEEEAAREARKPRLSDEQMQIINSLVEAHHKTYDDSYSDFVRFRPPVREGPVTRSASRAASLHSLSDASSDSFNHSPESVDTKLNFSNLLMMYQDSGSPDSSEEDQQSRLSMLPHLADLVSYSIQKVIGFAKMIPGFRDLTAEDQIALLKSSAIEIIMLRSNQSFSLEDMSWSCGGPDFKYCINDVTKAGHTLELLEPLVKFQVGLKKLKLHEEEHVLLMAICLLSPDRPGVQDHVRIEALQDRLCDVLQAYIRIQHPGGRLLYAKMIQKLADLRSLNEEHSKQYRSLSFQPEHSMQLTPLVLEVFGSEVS

zebrafish PXR [3] = conditions: cited from earlier work
[4] = system: ethoxyresorufin O-deethylase (EROD) activity (CYP1A-like activity); experiment: in vitro
Method: (§4) The cells are cultured at 26°C in ambient atmosphere.

[5] = system: testosterone 6β-hydroxylation activity (CYP3A-like activity); experiment: in vitro; conditions: zebrafish
Method: as §4
(§5) 100 μL of sample, calibration standard, or quality material standard were pipetted into separate microcentrifuge tubes and mixed with 100 μL of methanol. Samples were vortexed and centrifuged at 13,000 rpm for 4 min. The supernatant was then injected into the HPLC.
(§6) The flow rate was 1.2 mL/min and total run time was 25 min.

zebrafish PXR [6] = system: zebrafish PXR
[7] = system: flurbiprofen 4-hydroxylation activity (CYP2C-like activity)
EROD activity = experiment: EROD assay in sea lamprey primary hepatocytes; conditions: 24–48 hr exposure
[8] = system: testosterone 6β-hydroxylation; experiment: testosterone hydroxylation (HPLC) in sea lamprey primary hepatocytes; assay type: cell-based; conditions: concentration ranges per compound
Method: as §5, §6

[9] = screening for activators, at least three concentrations of each drug

SMILES | liver transcription of GAPDH [1] | liver transcription of CYP3C1 (CYP3C1) | liver transcription of β-actin (β-actin) | Effect on Xenopus laevis VDR (Xenopus laevis VDR; [9]) | Effect on sea lamprey VDR (Sea lamprey VDR; [9]) | liver transcription of PXR (PXR) | liver transcription of MDR1 (ABCB5) [2] | Effect on zebrafish VDR (Zebrafish VDR; [9]) | activity at recombinant zebrafish PXR (zebrafish PXR [3]) | effect on EROD activity [4] | Effect on Xenopus laevis VDR (Xenopus laevis VDR) | EC50 [5] | Effect on sea lamprey VDR (Sea lamprey VDR) | activation of recombinant zebrafish PXR (zebrafish PXR [6]) | maximal flurbiprofen 4-hydroxylation activities [7] | effect on EROD activity (EROD activity) | Effect on zebrafish VDR (Zebrafish VDR) | effect on testosterone 6β-hydroxylation [8]
C[C@H](CCC(O)C(CO)CO)[C@H]1CC[C@H]2[C@@H]3[C@H](O)C[C@@H]4C[C@H](O)CC[C@]4(C)[C@H]3C[C@H](O)[C@]12C (stereo partly drawn) [5β-scymnol, 5β-cholestan-3α,7α,12α,24,26,27-hexol] | 1.17 ± 0.58 arbitrary units normalized to β-actin | 1.17 ± 0.50 arbitrary units normalized to β-actin | 62.2 ± 21.8 arbitrary units | No effect | No effect | 0.92 ± 0.38 arbitrary units normalized to β-actin | 1.08 ± 0.17 arbitrary units normalized to β-actin | No effect | both inactive at recombinant zebrafish PXR |  |  |  |  |  |  |  |  | 
CCC1(c2ccccc2)C(=O)NC(=O)NC1=O [Phenobarbital] |  |  |  |  |  |  |  |  |  | found not to affect EROD activity | No effect | 928 ± 109 µM | No effect | all activate recombinant zebrafish PXR | greater than 50 nmol/min/mg protein | did not alter EROD activity | No effect | None of these compounds produced significant increases in testosterone 6β-hydroxylation
